According to patent US4820694A, “Modifications of 3-O-demethylmycinose in macrocin and lactenocin” (priority 1986, dated 1989):
Converted amounts (≈) assume the structure as drawn. Read-outs that look alike come from different tables or passages of the source.

Tests used:
[1] = system: Pasteurella hemolytica 22C; assay: broth-dilution microtiter MIC test; format: cell-based; conditions: Pasteurella, 22C
Description: (§1) The MIC's in Table III were determined by standard agar-dilution assays. The MIC's in Table IV were obtained using conventional brothdilution microtiter tests.

[2] = system: Pasteurella hemolytica 41D; assay: broth-dilution microtiter MIC test; format: cell-based; conditions: Pasteurella, 41D
Description: as §1

Mycoplasma hyorhinis 29E = assay: broth-dilution microtiter MIC test; format: cell-based; conditions: Mycoplasma, 29E
Description: as §1

[3] = system: Pasteurella multocida 17E; assay: broth-dilution microtiter MIC test; format: cell-based; conditions: Pasteurella multocida, 17E
Description: as §1

[4] = system: Pasteurella hemolytica 23C; assay: broth-dilution microtiter MIC test; format: cell-based; conditions: Pasteurella, 23C
Description: as §1

[5] = system: Bordetella bronchiseptica; assay: broth-dilution microtiter MIC test; format: cell-based; conditions: Bordetella bronchiseptica; broth-dilution microtiter; read-out: MIC
Description: as §1

Mycoplasma synoviae 40A = assay: broth-dilution microtiter MIC test; format: cell-based; conditions: Mycoplasmopsis synoviae, 40A
Description: as §1

[6] = system: Mycoplasma gallisepticum 36H; assay: broth-dilution microtiter MIC test; format: cell-based; conditions: Mycoplasmoides gallisepticum, 36H
Description: as §1

[7] = system: Pasteurella multocida 22A; assay: broth-dilution microtiter MIC test; format: cell-based; conditions: Pasteurella multocida, 22A
Description: as §1

[8] = system: Staphylococcus aureus 19C; assay: broth-dilution microtiter MIC test; format: cell-based; conditions: Staphylococcus aureus, 19C
Description: as §1

[9] = system: Mycoplasma gallisepticum 29C; assay: broth-dilution microtiter MIC test; format: cell-based; conditions: Mycoplasmoides gallisepticum, 29C
Description: as §1

[10] = system: Pasteurella multocida 60A; assay: broth-dilution microtiter MIC test; format: cell-based; conditions: Pasteurella multocida, 60A
Description: as §1

[11] = system: Pasteurella multocida 40G; assay: broth-dilution microtiter MIC test; format: cell-based; conditions: Pasteurella multocida, 40G
Description: as §1

Streptococcus sp. 19F = assay: broth-dilution microtiter MIC test; format: cell-based; conditions: Streptococcus, SP.19F
Description: as §1

[12] = system: Pasteurella multocida 68C; assay: broth-dilution microtiter MIC test; format: cell-based; conditions: Pasteurella multocida, 68C
Description: as §1

[13] = system: Mycoplasma gallisepticum 15E; assay: broth-dilution microtiter MIC test; format: cell-based; conditions: Mycoplasmoides gallisepticum, 15E
Description: as §1

[14] = system: Streptococcus pyogenes C203; assay: protection of mice experimentally infected with S. pyogenes C203; format: in vivo; conditions: mice, mg/kg × 2, doses given 1 and 4 hours postinfection, read-out: ED50
Description: The formula 1 compounds have shown in vivo antimicrobial activity against experimentally-induced infections in laboratory animals. When two doses of test compound were administered to mice experimentally infected with S. pyrogenes C203, the activity observed was measured as an ED50 value [effective dose in mg/kg to protect 50% of the test animals: see Warren Wick, et al., J. Bacteriol. 81, 233-235 (1961)].
^a mg/kg × 2; doses given 1 and 4 hours postinfection

[15] = system: Streptococcus Group D 9960; assay: standard agar-dilution MIC assay; format: cell-based; conditions: GROUPD9960, read-out: MIC
Description: as §1

[16] = system: Haemophilus influenzae C.L.; assay: standard agar-dilution MIC assay; format: cell-based; conditions: Haemophilus influenzae
Description: as §1

[17] = system: Staphylococcus aureus V41; assay: standard agar-dilution MIC assay; format: cell-based; conditions: Staphylococcus aureus, V41
Description: as §1

[18] = system: Streptococcus pyogenes C203; assay: standard agar-dilution MIC assay; format: cell-based; conditions: Streptococcus pyogenes, C203
Description: as §1

[19] = system: Streptococcus Group D X66; assay: standard agar-dilution MIC assay; format: cell-based; conditions: read-out: MIC
Description: as §1

[20] = system: Staphylococcus aureus X400; assay: standard agar-dilution MIC assay; format: cell-based; conditions: Staphylococcus aureus, X400
Description: as §1

[21] = system: Staphylococcus aureus X1.1; assay: standard agar-dilution MIC assay; format: cell-based; conditions: Staphylococcus aureus, X1.1
Description: as §1

[22] = system: Pseudomonas aeruginosa X239; assay: standard agar-dilution MIC assay; format: cell-based; conditions: Pseudomonas aeruginosa, X239; agar-dilution; read-out: MIC
Description: as §1

[23] = system: Klebsiella pneumoniae X68; assay: standard agar-dilution MIC assay; format: cell-based; conditions: Klebsiella pneumoniae, X68; agar-dilution; read-out: MIC
Description: as §1

[24] = system: Staphylococcus epidermidis EPI1; assay: standard agar-dilution MIC assay; format: cell-based; conditions: Staphylococcus epidermidis, EPI1
Description: as §1

[25] = system: Haemophilus influenzae 76; assay: standard agar-dilution MIC assay; format: cell-based; conditions: Haemophilus influenzae, 76
Description: as §1

Escherichia coli EC14 = assay: standard agar-dilution MIC assay; format: cell-based; conditions: agar-dilution, read-out: MIC
Description: as §1

[26] = system: Streptococcus pneumoniae Park I; assay: microbe, parasite or virus in culture; format: cell-based; conditions: Streptococcus pneumoniae
Description: as §1

[27] = system: Staphylococcus aureus S13E; assay: microbe, parasite or virus in culture; format: cell-based; conditions: Staphylococcus aureus, S13E
Description: as §1

[28] = broth-dilution microtiter, read-out: MIC

| Structure (SMILES) | MIC (Mycoplasma hyorhinis 29E) [µg/mL] | MIC [5] [µg/mL] | MIC (Mycoplasma synoviae 40A) [µg/mL] | MIC [6] [µg/mL] | MIC [8] [µg/mL] | MIC [9] [µg/mL] | MIC [11] [µg/mL] | MIC (Streptococcus sp. 19F) [µg/mL] | MIC [12] [µg/mL] | MIC [13] [µg/mL] | MIC [15] [µg/mL] | MIC [17] [µg/mL] | MIC [18] [µg/mL] | MIC [19] [µg/mL] | MIC [20] [µg/mL] | MIC [21] [µg/mL] | MIC [22] [µg/mL] | MIC [23] [µg/mL] | MIC [24] [µg/mL] | MIC [25] [µg/mL] | also measured |
| --- | --- | --- | --- | --- | --- | --- | --- | --- | --- | --- | --- | --- | --- | --- | --- | --- | --- | --- | --- | --- | --- |
| CCC1OC(=O)CC(O)C(C)C(OC2OC(C)C(O)C(N(C)C)C2O)C(CC=O)CC(C)C(=O)C=CC(C)=CC1COC1OC(C)C(OC(=O)CC(C)C)C(OC(=O)CC(C)C)C1OC (centres unmarked) [Compound 28, 3",4"-Di-O-isovaleryl-lactenocin] | 6.25 (≈ 6.75 µM) | > 50 | 12.5 (≈ 13.5 µM) | 50 (≈ 54 µM) | 6.25 (≈ 6.75 µM) | 1.56 (≈ 1.68 µM) | 50 (≈ 54 µM) | 3.12 (≈ 3.37 µM) | 50 (≈ 54 µM) | 25 (≈ 27 µM) | 4 (≈ 4.32 µM) | 2 (≈ 2.16 µM) | 2 (≈ 2.16 µM) | 4 (≈ 4.32 µM) | 4 (≈ 4.32 µM) | 2 (≈ 2.16 µM) | > 128 | > 128 | 2 (≈ 2.16 µM) | 64 (≈ 69.1 µM) | MIC [1, 28]: > 50 µg/mL; MIC [2, 28]: > 50 µg/mL; MIC ([3]; broth-dilution microtiter, Bovine isolate, read-out: MIC): > 50 µg/mL; MIC [4, 28]: > 50 µg/mL; MIC [7, 28]: > 50 µg/mL; MIC ([10]; broth-dilution microtiter, Avian isolate, read-out: MIC): > 50 µg/mL; ED50 ([14]; C203, Oral): 21.4 mg/kg; ED50 ([14]; C203, sc, Subcutaneous): > 6.25 mg/kg; MIC ([16]; agar-dilution, Ampicillin-sensitive strain, read-out: MIC): 128 µg/mL (≈ 138 µM); MIC (Escherichia coli EC14): > 128 µg/mL; MIC [26]: 0.5 µg/mL (≈ 0.54 µM); MIC [27]: 2 µg/mL (≈ 2.16 µM) |
| CCC1OC(=O)CC(O)C(C)C(OC2OC(C)C(O)C(N(C)C)C2OC(C)=O)C(CC=O)CC(C)C(=O)C=CC(C)=CC1COC1OC(C)C(OC(C)=O)C(OC(=O)COc2ccccc2)C1OC (centres unmarked) [Compound 37, 2',4"-Di-O-acetyl-3"-O-phenoxyacetyllactenocin] | 6.25 (≈ 6.4 µM) | > 50 | 0.78 (≈ 0.799 µM) | 12.5 (≈ 12.8 µM) | 1.56 (≈ 1.6 µM) | 0.195 (≈ 0.2 µM) | 25 (≈ 25.6 µM) | 0.78 (≈ 0.799 µM) | 12.5 (≈ 12.8 µM) | 6.25 (≈ 6.4 µM) | 2 (≈ 2.05 µM) | 1 (≈ 1.02 µM) | 0.5 (≈ 0.512 µM) | 1 (≈ 1.02 µM) | 2 (≈ 2.05 µM) | 1 (≈ 1.02 µM) | > 128 | > 128 | 1 (≈ 1.02 µM) | 4 (≈ 4.1 µM) | MIC [1]: 25 µg/mL (≈ 25.6 µM); MIC [2]: 25 µg/mL (≈ 25.6 µM); MIC [3]: 25 µg/mL (≈ 25.6 µM); MIC [4]: 25 µg/mL (≈ 25.6 µM); MIC [7]: 25 µg/mL (≈ 25.6 µM); MIC [10]: 25 µg/mL (≈ 25.6 µM); MIC [16]: 16 µg/mL (≈ 16.4 µM); MIC (Escherichia coli EC14): > 128 µg/mL; MIC ([26]; agar-dilution, read-out: MIC): 0.12 µg/mL (≈ 0.123 µM); MIC [27]: 1 µg/mL (≈ 1.02 µM) |
| CCC1OC(=O)CC(O)C(C)C(OC2OC(C)C(O)C(N(C)C)C2OC(C)=O)C(CC=O)CC(C)C(=O)C=CC(C)=CC1COC1OC(C)C(OC(=O)CC(C)C)C(O)C1OC (centres unmarked) [Compound 25, 2'-O-Acetyl-4"-O-isovaleryl-lactenocin] | 1.56 (≈ 1.76 µM) | > 50 | 3.12 (≈ 3.53 µM) | 25 (≈ 28.3 µM) | 6.25 (≈ 7.07 µM) | 0.39 (≈ 0.441 µM) | 25 (≈ 28.3 µM) | 1.56 (≈ 1.76 µM) | 25 (≈ 28.3 µM) | 50 (≈ 56.6 µM) | 2 (≈ 2.26 µM) | 2 (≈ 2.26 µM) | 2 (≈ 2.26 µM) | 2 (≈ 2.26 µM) | 2 (≈ 2.26 µM) | 2 (≈ 2.26 µM) | > 128 | > 128 | 2 (≈ 2.26 µM) | 16 (≈ 18.1 µM) | MIC [1]: 50 µg/mL (≈ 56.6 µM); MIC [2]: 25 µg/mL (≈ 28.3 µM); MIC [3]: 25 µg/mL (≈ 28.3 µM); MIC [4]: 25 µg/mL (≈ 28.3 µM); MIC [7]: 25 µg/mL (≈ 28.3 µM); MIC [10]: 25 µg/mL (≈ 28.3 µM); MIC [16]: 32 µg/mL (≈ 36.2 µM); MIC (Escherichia coli EC14): > 128 µg/mL; MIC [26]: 0.5 µg/mL (≈ 0.566 µM); MIC [27]: 2 µg/mL (≈ 2.26 µM) |
